Experimental data: US10913736B2 (UNIVERSITY OF WASHINGTON, priority 2014, dated 2021)

Key:
MetRS (T. brucei) = MetRS (T. brucei) (Trypanosoma brucei brucei, UniProt Q38C91); experiment: MetRS (T. brucei) ATP depletion assay using Kinase-Glo; format: biochemical
T. brucei = experiment: Growth inhibition assay of T. brucei cell cultures (Alamar Blue, 48 h); format: cell-based; conditions: Trypanosoma brucei; read-out: B) T. brucei EC50

MetRS (T. brucei), sequence (Q38C91 entry or part of it): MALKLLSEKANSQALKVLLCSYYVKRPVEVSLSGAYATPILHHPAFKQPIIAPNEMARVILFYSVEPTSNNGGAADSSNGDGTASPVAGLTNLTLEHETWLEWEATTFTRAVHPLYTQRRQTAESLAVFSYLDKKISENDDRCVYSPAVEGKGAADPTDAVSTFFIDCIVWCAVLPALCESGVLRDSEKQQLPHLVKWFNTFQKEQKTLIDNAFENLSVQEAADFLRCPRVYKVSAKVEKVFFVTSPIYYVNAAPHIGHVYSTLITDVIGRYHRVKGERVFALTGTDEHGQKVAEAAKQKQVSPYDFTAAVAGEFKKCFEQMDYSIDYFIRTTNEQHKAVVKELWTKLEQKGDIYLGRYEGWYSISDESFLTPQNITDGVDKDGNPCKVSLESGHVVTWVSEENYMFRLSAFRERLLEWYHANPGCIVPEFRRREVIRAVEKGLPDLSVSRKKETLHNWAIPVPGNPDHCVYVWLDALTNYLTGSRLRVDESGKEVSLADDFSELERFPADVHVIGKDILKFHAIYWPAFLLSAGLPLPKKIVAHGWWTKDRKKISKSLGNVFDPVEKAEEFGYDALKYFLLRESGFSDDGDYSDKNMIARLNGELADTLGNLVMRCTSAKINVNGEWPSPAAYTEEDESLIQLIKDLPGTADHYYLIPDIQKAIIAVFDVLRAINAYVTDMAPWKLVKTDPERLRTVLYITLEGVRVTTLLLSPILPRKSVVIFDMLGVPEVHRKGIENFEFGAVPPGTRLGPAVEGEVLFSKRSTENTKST

| Compound | IC50 (MetRS (T. brucei)) [nM] | EC50 (T. brucei) [nM] |
| --- | --- | --- |
| CCOc1c(Cl)cc(Cl)cc1CN[C@H]1CCCN(c2nc3nc(Cl)ccc3[nH]2)C1 [Compound 1920, (S)-1-(5-chloro-1H-imidazo[4,5-b]pyridin-2-yl)-N-(3,5-dichloro-2-ethoxybenzyl)piperidin-3-amine] | 16 | 111 |
| O=C(Cc1cc(Cl)cc(Cl)c1)NC1CCCC(c2nc3nc(Cl)ccc3[nH]2)C1 (stereo not shown) [Compound 1786, N-(3-(5-chloro-1H-imidazo[4,5-b]pyridin-2-yl)cyclohexyl)-2-(3,5-dichlorophenyl)acetamide] | 310 | 5670 |
| O=C1CN(Cc2ccccc2Cl)CCN1Cc1nc2ccccc2[nH]1 [Compound 1735, 1-(1H-1,3-benzodiazol-2-ylmethyl)-4-[(2-chlorophenyl)methyl]piperazin-2-one] | > 10000 | > 20000 |
| CC(=O)N(Cc1cc(Cl)cc(Cl)c1)[C@H]1CCCN(c2nc3nc(F)ccc3[nH]2)C1 [Compound 1901, (S)—N-(3,5-dichlorobenzyl)-N-(1-(5-fluoro-1H-imidazo[4,5-b]pyridin-2-yl)piperidin-3-yl)acetamide] | 692 | 5100 |
| COc1ccc(Oc2nc(O)nc(NCc3nc4ccc(F)nc4[nH]3)n2)c(Cl)c1 [Compound 1885, 4-(2-chloro-4-methoxyphenoxy)-6-[({5-fluoro-3H-imidazo[4,5-b]pyridin-2-yl}methyl)amino]-1,3,5-triazin-2-ol] | 1510 | 5870 |
| O=C(Cc1cc(Cl)cc(Cl)c1)NCc1nc2ccc(Cl)cc2[nH]1 [Compound 1851, N-((6-chloro-1H-benzo[d]imidazol-2-yl)methyl)-2-(3,5-dichlorophenyl)acetamide] | 81 | 3380 |
| Clc1cc(Cl)c(OCC2CC2)c(CN[C@H]2CCCN(c3nc4nc(Cl)ccc4[nH]3)C2)c1 [Compound 1929, (S)-1-(5-chloro-1H-imidazo[4,5-b]pyridin-2-yl)-N-(3,5-dichloro-2-(cyclopropylmethoxy)benzyl)piperidin-3-amine] | 29 | 511 |
| O=C(CCOc1ccc(Cl)cc1Cl)NCc1nc2ccc(F)cc2[nH]1 [Compound 1740, 3-(2,4-dichlorophenoxy)-N-((6-fluoro-1H-benzo[d]imidazol-2-yl)methyl)propanamide] | 549 | > 10000 |
| O=C(NCCc1ccc(Cl)cc1Cl)OCc1nc2ccccc2[nH]1 [Compound 1739, [2-(2,4-Dichloro-phenyl)-ethyl]-carbamic acid 1H-benzoimidazol-2-ylmethyl ester] | 1450 | > 10000 |
| Clc1ccc(Cn2cc(Cc3nc4ccccc4[nH]3)nn2)c(Cl)c1 [Compound 1752, 2-((1-(2,4-dichlorobenzyl)-1H-1,2,3-triazol-4-yl)methyl)-1H-benzo[d]imidazole] | 1360 | > 10000 |
| Clc1cc(Cl)cc(CNC2CCN(c3nc4nc(Cl)ccc4[nH]3)CC2)c1 [Compound 1867, 1-(5-chloro-1H-imidazo[4,5-b]pyridin-2-yl)-N-(3,5-dichlorobenzyl)piperidin-4-amine] | 4970 | > 20000 |
| Fc1ccc2[nH]c(C3CCCC(NCc4cc(Cl)cc(Cl)c4)C3)nc2n1 (stereo not shown) [Compound 1800, N-(3,5-dichlorobenzyl)-3-(5-fluoro-1H-imidazo[4,5-b]pyridin-2-yl) cyclohexanamine] | 663 | 961 |
| OC1N[C@@H](Cc2ccc(Cl)cc2Cl)C(O)N1Cc1nc2ccccc2[nH]1 (stereo partly drawn) [Compound 1906, (5S)-3-((H-benzo[d]imidazol-2-yl)methyl)-5-(2,4-dichlorobenzyl)imidazolidine-2,4-diol] | 2940 | 6230 |
| O=C(Cc1cc2cc(Cl)cc(Cl)c2o1)NCc1nc2ccccc2[nH]1 [Compound 1756, N-((1H-benzo[d]imidazol-2-yl)methyl)-2-(5,7-dichlorobenzofuran-2-yl)acetamide] | 3720 | > 10000 |
